Measurements published in patent US20240116877A1, “KIT KINASE INHIBITORS AND METHODS OF USE THEREOF” (Deciphera Pharmaceuticals, LLC, priority 2021, published 2024).
Where two headings read alike, the source gives them in different places.

How the values were obtained:
GIST 430 cells = test: GIST 430 Cell Proliferation Assay (resazurin); format: cell-based; settings: Homo sapiens; GIST430 cell proliferation
Outline: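 Five thousand cells per well were exposed to serially diluted compound in complete growth medium for 115 h at 37 degrees Celsius, 5% CO2. Resazurin was then added for a further 5 h, fluorescence read at 540 nm excitation/600 nm emission, and IC50 values calculated.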

c-KIT kinase (uKIT) = c-KIT kinase (uKIT) (Homo sapiens (Human), UniProt P10721); test: Biochemical Assay for uKIT (coupled pyruvate kinase/lactate dehydrogenase assay); settings: Inhibition of biochemical activity of uKIT kinase; 1 mM ATP
c-KIT kinase (uKIT), sequence (P10721 other isoform, or with tags, fused parts or gaps): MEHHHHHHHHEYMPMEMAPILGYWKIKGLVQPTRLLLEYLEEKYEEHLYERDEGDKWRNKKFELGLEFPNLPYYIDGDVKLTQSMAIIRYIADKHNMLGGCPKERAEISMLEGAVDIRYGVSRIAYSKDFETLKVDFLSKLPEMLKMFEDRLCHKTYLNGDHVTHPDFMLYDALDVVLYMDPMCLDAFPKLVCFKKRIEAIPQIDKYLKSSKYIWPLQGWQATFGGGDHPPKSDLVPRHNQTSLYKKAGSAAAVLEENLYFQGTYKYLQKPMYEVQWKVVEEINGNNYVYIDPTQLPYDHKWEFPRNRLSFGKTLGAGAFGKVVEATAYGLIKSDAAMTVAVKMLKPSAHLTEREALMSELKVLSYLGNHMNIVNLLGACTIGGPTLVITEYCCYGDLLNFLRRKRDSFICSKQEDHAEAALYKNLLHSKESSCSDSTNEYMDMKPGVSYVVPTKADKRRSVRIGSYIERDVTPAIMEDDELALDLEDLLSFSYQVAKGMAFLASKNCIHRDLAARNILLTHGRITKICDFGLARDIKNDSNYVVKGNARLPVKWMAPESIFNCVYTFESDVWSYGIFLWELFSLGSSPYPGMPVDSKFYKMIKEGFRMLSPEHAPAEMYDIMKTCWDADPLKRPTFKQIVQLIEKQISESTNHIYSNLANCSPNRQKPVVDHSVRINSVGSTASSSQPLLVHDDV
Outline: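 Continuous coupled PK/LDH assay following NADH oxidation at 340 nm for 6 h at 30° C, with 16 nM or 4.36 nM KIT (two constructs), 0.7 mg/mL PE4Y, 1 mM ATP, pH 7.5. Rates from the 2-3 h window converted to percent inhibition versus controls; IC50 fitted.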

Ba/F3 KIT mutant cells = test: Ba/F3 mutant KIT Cell Proliferation Assays (resazurin); format: cell-based; settings: Mus musculus, BaF3
Outline: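 IC50 values come from resazurin fluorescence (ex 540, em 600) after 5 h dye exposure, added as a 440 μM solution. Cells were IL-3-independent Ba/F3 expressing mutant KIT from a lentiviral vector, puromycin-selected.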

[1] = Ba/F3 KIT AYdup mutant cell proliferation, read-out: AYdup IC50
[2] = Ba/F3 KIT AYdup-D816G mutant cell proliferation, read-out: AYdup-D816G IC50
[3] = Ba/F3 KIT AYdup-V654A mutant cell proliferation, read-out: AYdup-V654A IC50
[4] = Ba/F3 KIT exon11del-V654A mutant cell proliferation, read-out: exon11del-V654A IC50
[5] = Ba/F3 KIT exon11del-Y823D mutant cell proliferation, read-out: exon11del-Y823D IC50

IC50 (c-KIT kinase (uKIT)) [nM] | IC50 (Ba/F3 KIT mutant cells; [1]) [nM] | IC50 (Ba/F3 KIT mutant cells; [2]) [nM] | IC50 (Ba/F3 KIT mutant cells; [3]) [nM] | IC50 (Ba/F3 KIT mutant cells; [4]) [nM] | IC50 (Ba/F3 KIT mutant cells; [5]) [nM] | Compound | IC50 (GIST 430 cells) [nM]
≤ 10 | ≤ 10 | 10 to 100 | 100 to 1000 | 10 to 100 | 100 to 1000 | COCCOc1cc(F)c2c(Nc3ccc(NC(=O)COCC(C)C)cc3)ncnc2c1 [Example 49] | 10 to 100
10 to 100 | ≤ 10 | ≤ 10 | 10 to 100 | ≤ 10 | 10 to 100 | COCCOc1cc(F)c2c(Nc3ccc(NC(=O)CC(=O)NCC(C)(C)C(F)(F)F)cc3)ncnc2c1 [Example 88] | ≤ 10
≤ 10 | – | – | 10 to 100 | ≤ 10 | 100 to 1000 | COCCOc1cc(F)c2c(Nc3ccc(NC(=O)CC(=O)NCC4(C)CC4)cc3)ncnc2c1 [Example 85] | ≤ 10
100 to 1000 | – | > 1000 | > 1000 | > 1000 | > 1000 | COCCOc1cc(F)c2c(Nc3ccc(NC(=O)NCCC(C)(C)F)nc3)ncnc2c1 [Example 29] | 100 to 1000
10 to 100 | – | – | 100 to 1000 | 100 to 1000 | 100 to 1000 | COCCOc1cc(F)c2c(Nc3ccc(NC(=O)CC(=O)N4CCC(F)(F)CC4)cc3)ncnc2c1 [Example 164] | 10 to 100
≤ 10 | ≤ 10 | 10 to 100 | 10 to 100 | ≤ 10 | 10 to 100 | COCCOc1cc(F)c2c(Nc3ccc(NC(=O)CC(=O)NC4CCC4)cc3)ncnc2c1 [Example 95] | ≤ 10
> 1000 | 100 to 1000 | > 1000 | > 1000 | > 1000 | – | COCCOc1cc(F)c2c(Nc3ccc(NC(=O)CCN4CCCC4=O)cc3)ncnc2c1 [Example 53] | 100 to 1000
≤ 10 | ≤ 10 | ≤ 10 | ≤ 10 | ≤ 10 | 10 to 100 | COCCOc1cc(F)c2c(Nc3ccc(NC(=O)NCCC(C)(C)C)cc3)ncnc2c1 [Example 9] | ≤ 10
10 to 100 | – | – | 10 to 100 | 10 to 100 | 100 to 1000 | COCCOc1cc(F)c2c(Nc3ccc(NC(=O)C(F)(F)C(=O)NCC(C)(C)C)cc3)ncnc2c1 [Example 60] | 10 to 100
10 to 100 | 10 to 100 | 100 to 1000 | 100 to 1000 | 100 to 1000 | 100 to 1000 | COCCOc1cc(F)c2c(Nc3ccc(NC(=O)NCCN4CCCC4=O)cc3)ncnc2c1 [Example 54] | 10 to 100
10 to 100 | 10 to 100 | 10 to 100 | 10 to 100 | 100 to 1000 | 10 to 100 | COCCOc1cc(OC)c2c(Nc3ccc(NC(=O)CC(=O)NC4CCCC4)cc3)ncnc2c1 [Example 176] | 10 to 100
≤ 10 | ≤ 10 | 10 to 100 | 100 to 1000 | 10 to 100 | 100 to 1000 | COCCOc1cc(F)c2c(Nc3ccc(NC(=O)OCCC(C)(C)C#N)cc3)ncnc2c1 [Example 46] | 10 to 100
≤ 10 | – | – | 10 to 100 | ≤ 10 | 10 to 100 | CC(C)(F)CCNC(=O)Nc1ccc(Nc2ncnc3cc(OCC4CCOCC4)cc(F)c23)cc1 [Example 123] | 10 to 100
≤ 10 | ≤ 10 | 10 to 100 | 10 to 100 | 10 to 100 | 100 to 1000 | COCCOc1cc(F)c2c(Nc3ccc(NC(=O)NC4CC(C)(C)C4)cc3)ncnc2c1 [Example 8] | 10 to 100
≤ 10 | ≤ 10 | ≤ 10 | 10 to 100 | 10 to 100 | 10 to 100 | COCCOc1cc(F)c2c(Nc3ccc(NC(=O)NCCC(C)(C)C#N)cc3)ncnc2c1 [Example 26] | 10 to 100
